# Assay results from ChEMBL document CHEMBL1140730, “Validation of diacyl glycerolacyltransferase I as a novel target for the treatment of obesity and dyslipidemia using a potent and selective small molecule inhibitor” (J Med Chem, 2008).
# Biological target: T1, Diacylglycerol O-acyltransferase 1 (Mus musculus, UniProt Q9Z2A7)
# T1 sequence (Q9Z2A7 whole entry): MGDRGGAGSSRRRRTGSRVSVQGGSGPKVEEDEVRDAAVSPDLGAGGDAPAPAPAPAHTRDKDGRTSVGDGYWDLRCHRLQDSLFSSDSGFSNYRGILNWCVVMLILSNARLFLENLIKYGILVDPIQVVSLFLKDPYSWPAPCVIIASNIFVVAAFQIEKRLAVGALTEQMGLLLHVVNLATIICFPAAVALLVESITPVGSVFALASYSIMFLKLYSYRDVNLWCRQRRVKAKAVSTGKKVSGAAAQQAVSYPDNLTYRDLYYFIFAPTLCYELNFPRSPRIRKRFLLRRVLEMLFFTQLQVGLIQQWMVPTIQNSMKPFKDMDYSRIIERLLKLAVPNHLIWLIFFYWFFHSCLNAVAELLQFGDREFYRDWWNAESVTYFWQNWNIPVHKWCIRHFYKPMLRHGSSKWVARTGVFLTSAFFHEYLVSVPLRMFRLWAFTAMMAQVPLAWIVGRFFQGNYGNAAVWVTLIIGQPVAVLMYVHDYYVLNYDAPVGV
# Experiment: Inhibition of mouse recombinant DGAT1 expressed in Sf9 cells
row,SMILES,IC50
1,N#Cc1ccc(NC(=O)Nc2ccc(-c3ccc(C(=O)[C@@H]4CCC[C@H]4C(=O)O)cc3)cc2)cc1,0.603 µM
2,O=C(Nc1ccc(-c2ccc(C(=O)[C@@H]3CCC[C@H]3C(=O)O)cc2)cc1)Nc1cc(C(F)(F)F)ccc1F,0.021 µM
3,O=C(Nc1ccc(-c2ccc(C(=O)[C@@H]3CCC[C@H]3C(=O)O)cc2)cc1)Nc1ccc(C(F)(F)F)cc1,0.014 µM

# The remaining molecules from weak to strong by IC50, led by results:
row,IC50,SMILES
1,0.207 µM,O=C(O)[C@@H]1CCC[C@H]1C(=O)c1ccc(-c2ccc(Nc3nc4ccc(OC(F)(F)F)cc4s3)c(F)c2)cc1
2,0.019 µM,O=C(Nc1ccc(-c2ccc(C(=O)[C@@H]3CCC[C@H]3C(=O)O)cc2)cc1)Nc1cccc(Cl)c1
3,0.017 µM,O=C(Nc1ccc(-c2ccc(C(=O)[C@@H]3CCC[C@H]3C(=O)O)cc2)cc1)Nc1cccc(C(F)(F)F)c1
